# Assay results: patent publication US20220000110A1, “COMPOSITIONS COMPRISING PYRIDINE CARBOXYLATE HERBICIDES AND CELLULOSE BIOSYNTHESIS INHIBITOR HERBICIDES” (priority 2018, published 2022)
# Experiments:
# Experiment in all cases: Greenhouse postemergence herbicidal effect, visual injury after 20-22 d
# Assay type in all cases: in vivo
# [1] = tested on: Chenopodium album L. (common lambsquarters); details: CHEAL
# Description: (§1) Greenhouse Trial Methodology—Evaluation of Postemergence Herbicidal Effect
# (§2) Seeds of the desired test plant species were planted in a 90:10% v/v (volume/volume) mixture of PRO-MIX® BX (Premier Tech Horticulture, Quakertown, Pa., USA) and PROFILE® GREENS GRADE™ (Profile Products LLC, Buffalo Grove, Ill., USA) planting mixture, which typically has a pH of 5.2 to 6.2 and an organic matter content of at least 50 percent, in plastic pots with a surface area of 103.2 square centimeters (cm^2). In some aspects, to help ensure good germination and healthy plants, a fungicide treatment and/or other chemical or physical treatment was applied. The plants were grown for 7-36 days (d) in a greenhouse with an approximate 14-hour (h) photoperiod which was maintained at about 23° C. during the day and 22° C. during the night. Nutrients and water were added on a regular basis and supplemental lighting was provided with overhead metal halide 1000-Watt lamps as necessary. The plants were employed for testing when they reached the second or third true leaf stage.
# (§3) Emulsifiable concentrates of each of each pyridine carboxylate herbicide (Compound A or Compound B) were prepared at 100 grams acid equivalent per liter (g ae/L). The emulsifiable concentrates also included a safener, at 120 grams active ingredient per liter (g ai/L). An aliquot of each emulsifiable concentrate was placed in a 25 mL glass vial and diluted with an aqueous mixture of 1.25% (v/v) ACTIROB® B esterified rapeseed oil (Bayer Crop Science, Research Triangle Park, N.C., USA) or MSO® Concentrate with LECI-TECH® methylated soybean oil (Loveland Products, Loveland, Colo., USA) to obtain concentrated stock solutions at the highest application rate for each herbicide, based upon a 12 milliliter (mL) application volume at a rate of 187 liters per hectare (L/ha). The concentrated stock solutions were further diluted with an aqueous mixture of 1.25% v/v ACTIROB® B or MSO® Concentrate with LECI-TECH® to obtain stock solutions at reduced application rates for each herbicide. Spray solutions of the herbicide combinations (Compound A or Compound B plus the CBI herbicide) were prepared by adding weighed amounts or aliquots of the CBI herbicide to the stock solutions of Compound A or Compound B to form 12-mL spray solutions in two-way combinations.
# (§4) The spray solutions were applied to the plant material with an overhead Mandel track sprayer equipped with 8002E nozzles calibrated to deliver 187 L/ha over an application area of 0.503 square meters (m^2) at a spray height of 18 inches (43 centimeters (cm)) above the average plant canopy. Control plants were sprayed in the same manner with the solvent blank. All pyridine carboxylate herbicide (component a) application rates are given as “g ae/ha” and all CBI herbicide (component b) application rates are given as “g ai/ha.”
# (§5) The treated plants and control plants were placed in a greenhouse as described above and watered by sub-irrigation to prevent wash-off of the test compounds. After 20-22 d, the condition of the test plants as compared with that of the control plants was determined visually and scored on a scale of 0 to 100 percent where 0 corresponds to no injury and 100 corresponds to complete kill.
# [2] = tested on: Lolium multiflorum (Italian rye grass); details: Table 2, LOLMU
# Description: as §1, §2, §3, §4, §5
# [3] = tested on: Digitaria sanguinalis (large crabgrass); details: DIGSA
# Description: as §1, §2, §3, §4, §5
# [4] = tested on: Setaria faberi (giant foxtail); details: SETFA
# Description: as §1, §2, §3, §4, §5
# [5] = tested on: Helianthus annuus (common sunflower); details: Table 1, HELAN
# Description: as §1, §2, §3, §4, §5
# [6] = tested on: Amaranthus retroflexus (pigweed); details: AMARE
# Description: as §1, §2, §3, §4, §5
# Kochia scoparia (kochia) = details: KCHSC
# Description: as §1, §2, §3, §4, §5
# [7] = tested on: Polygonum convolvulus (wild buckwheat); details: POLCO
# Description: as §1, §2, §3, §4, §5
# [8] = tested on: Oryza sativa (common rice); details: Table 1, ORYSA
# Description: as §1, §2, §3, §4, §5
# [9] = tested on: Sorghum vulgare (grain sorghum); details: Table 1, SORVU
# Description: as §1, §2, §3, §4, §5
# [10] = tested on: Salsola kali (Russian thistle); details: SASKR
# Description: as §1, §2, §3, §4, §5
# [11] = tested on: Viola tricolor (wild pansy); details: VIOTR
# Description: as §1, §2, §3, §4, §5
smiles,measurement,setting,value
"N#CCOC(=O)c1nc(-c2ccc3cc[nH]c3c2F)c(F)c(N)c1Cl [Compound A, cyanomethyl 4-amino-3-chloro-5-fluoro-6-(7-fluoro-1H-indol-6-yl)pyridine-2-carboxylate]",Obs % visual injury,"[1]; Table 1, Compound A 7.5 g/ha",98%
same,Obs % visual injury,"[1]; Table 1, Compound A 10 g/ha",93%
same,Obs % visual injury,"[1]; Table 3, Compound A 7.5 g/ha",70%
same,Obs % visual injury,"[1]; Table 3, Compound A 10 g/ha",78%
same,Obs % visual injury,"[1]; Table 3, Compound A 15 g/ha",83%
same,Obs % visual injury,"[1]; Table 4, Compound A 7.5 g/ha",70%
same,Obs % visual injury,"[1]; Table 4, Compound A 10 g/ha",78%
same,Obs % visual injury,"[1]; Table 4, Compound A 15 g/ha",83%
same,Obs % visual injury,[2]; Compound A 7.5 g/ha,0%
same,Obs % visual injury,[2]; Compound A 10 g/ha,0%
same,Obs % visual injury,"[3]; Table 1, Compound A 7.5 g/ha",35%
same,Obs % visual injury,"[3]; Table 1, Compound A 10 g/ha",38%
same,Obs % visual injury,"[3]; Table 2, Compound A 7.5 g/ha",45%
same,Obs % visual injury,"[3]; Table 2, Compound A 10 g/ha",25%
same,Obs % visual injury,"[4]; Table 1, Compound A 7.5 g/ha",78%
same,Obs % visual injury,"[4]; Table 1, Compound A 10 g/ha",80%
same,Obs % visual injury,"[4]; Table 2, Compound A 7.5 g/ha",70%
same,Obs % visual injury,"[4]; Table 2, Compound A 10 g/ha",70%
same,Obs % visual injury,[5]; Compound A 7.5 g/ha,90%
same,Obs % visual injury,[5]; Compound A 10 g/ha,89%
same,Obs % visual injury,"[6]; Table 1, Compound A 7.5 g/ha",88%
same,Obs % visual injury,"[6]; Table 1, Compound A 10 g/ha",88%
same,Obs % visual injury,"[6]; Table 3, Compound A 7.5 g/ha",78%
same,Obs % visual injury,"[6]; Table 3, Compound A 10 g/ha",78%
same,Obs % visual injury,"[6]; Table 3, Compound A 15 g/ha",83%
same,Obs % visual injury,"[6]; Table 4, Compound A 7.5 g/ha",78%
same,Obs % visual injury,"[6]; Table 4, Compound A 10 g/ha",78%
same,Obs % visual injury,"[6]; Table 4, Compound A 15 g/ha",83%
same,Obs % visual injury,"Kochia scoparia (kochia); Table 1, Compound A 7.5 g/ha",75%
same,Obs % visual injury,"Kochia scoparia (kochia); Table 1, Compound A 10 g/ha",73%
same,Obs % visual injury,"Kochia scoparia (kochia); Table 2, Compound A 7.5 g/ha",60%
same,Obs % visual injury,"Kochia scoparia (kochia); Table 2, Compound A 10 g/ha",65%
same,Obs % visual injury,"Kochia scoparia (kochia); Table 3, Compound A 7.5 g/ha",70%
same,Obs % visual injury,"Kochia scoparia (kochia); Table 3, Compound A 10 g/ha",70%
same,Obs % visual injury,"Kochia scoparia (kochia); Table 3, Compound A 15 g/ha",70%
same,Obs % visual injury,"Kochia scoparia (kochia); Table 4, Compound A 7.5 g/ha",70%
same,Obs % visual injury,"Kochia scoparia (kochia); Table 4, Compound A 10 g/ha",70%
same,Obs % visual injury,"Kochia scoparia (kochia); Table 4, Compound A 15 g/ha",70%
same,Obs % visual injury,"[7]; Table 1, Compound A 7.5 g/ha",83%
same,Obs % visual injury,"[7]; Table 1, Compound A 10 g/ha",93%
same,Obs % visual injury,"[7]; Table 2, Compound A 7.5 g/ha",75%
same,Obs % visual injury,"[7]; Table 2, Compound A 10 g/ha",70%
same,Obs % visual injury,"[7]; Table 3, Compound A 7.5 g/ha",63%
same,Obs % visual injury,"[7]; Table 3, Compound A 10 g/ha",60%
same,Obs % visual injury,"[7]; Table 3, Compound A 15 g/ha",63%
same,Obs % visual injury,"[7]; Table 4, Compound A 7.5 g/ha",63%
same,Obs % visual injury,"[7]; Table 4, Compound A 10 g/ha",60%
same,Obs % visual injury,"[7]; Table 4, Compound A 15 g/ha",63%
same,Obs % visual injury,[8]; Compound A 7.5 g/ha,3%
same,Obs % visual injury,[8]; Compound A 10 g/ha,8%
same,Obs % visual injury,[9]; Compound A 7.5 g/ha,0%
same,Obs % visual injury,[9]; Compound A 10 g/ha,0%
same,Obs % visual injury,"[10]; Table 3, Compound A 7.5 g/ha",55%
same,Obs % visual injury,"[10]; Table 3, Compound A 10 g/ha",58%
same,Obs % visual injury,"[10]; Table 3, Compound A 15 g/ha",65%
same,Obs % visual injury,"[10]; Table 4, Compound A 7.5 g/ha",55%
same,Obs % visual injury,"[10]; Table 4, Compound A 10 g/ha",58%
same,Obs % visual injury,"[10]; Table 4, Compound A 15 g/ha",65%
same,Obs % visual injury,"[11]; Table 1, Compound A 7.5 g/ha",38%
same,Obs % visual injury,"[11]; Table 1, Compound A 10 g/ha",15%
same,Obs % visual injury,"[11]; Table 2, Compound A 7.5 g/ha",10%
same,Obs % visual injury,"[11]; Table 2, Compound A 10 g/ha",18%
